The source made the active and inactive calls. No cut-off for these calls is given here.
Tests used:
[1] = target: Receptor-type tyrosine-protein kinase FLT3 (Homo sapiens, UniProt P36888, D835Y); experiment: Inhibition of recombinant human FLT3 D835Y mutant (564 to end residues) using EAIYAAPFAKKK as substrate at 40 mins in presence of [gamma-33ATP] by scintillation counting based radiometry assay
SET-2 [2] = experiment: Induction of apoptosis in human SET-2 cells assessed as early apoptotic cells at 0.8 uM incubated for 24 hrs by Annexin V/PI staining based flow cytometric analysis (reference value: 1.47 %); format: functional
L02 = experiment: Cytotoxicity against human L02 cells assessed as reduction in cell viability incubated for 72 hrs by MTT assay; format: cell-based; conditions: L02, 72 h
SET-2 [3] = experiment: Induction of apoptosis in human SET-2 cells assessed as late apoptotic cells at 1.6 uM incubated for 24 hrs by Annexin V/PI staining based flow cytometric analysis (reference value: 1.52%); format: functional
[4] = target: Signal transducer and activator of transcription 3 (Mus musculus) (UniProt P42227); experiment: Inhibition of STAT3 phosphorylation in mouse BAF3 cells at 1000 nM after 2 hrs by Western blot analysis; format: cell-based
Chain of Signal transducer and activator of transcription 3 (Mus musculus) (P42227 whole entry): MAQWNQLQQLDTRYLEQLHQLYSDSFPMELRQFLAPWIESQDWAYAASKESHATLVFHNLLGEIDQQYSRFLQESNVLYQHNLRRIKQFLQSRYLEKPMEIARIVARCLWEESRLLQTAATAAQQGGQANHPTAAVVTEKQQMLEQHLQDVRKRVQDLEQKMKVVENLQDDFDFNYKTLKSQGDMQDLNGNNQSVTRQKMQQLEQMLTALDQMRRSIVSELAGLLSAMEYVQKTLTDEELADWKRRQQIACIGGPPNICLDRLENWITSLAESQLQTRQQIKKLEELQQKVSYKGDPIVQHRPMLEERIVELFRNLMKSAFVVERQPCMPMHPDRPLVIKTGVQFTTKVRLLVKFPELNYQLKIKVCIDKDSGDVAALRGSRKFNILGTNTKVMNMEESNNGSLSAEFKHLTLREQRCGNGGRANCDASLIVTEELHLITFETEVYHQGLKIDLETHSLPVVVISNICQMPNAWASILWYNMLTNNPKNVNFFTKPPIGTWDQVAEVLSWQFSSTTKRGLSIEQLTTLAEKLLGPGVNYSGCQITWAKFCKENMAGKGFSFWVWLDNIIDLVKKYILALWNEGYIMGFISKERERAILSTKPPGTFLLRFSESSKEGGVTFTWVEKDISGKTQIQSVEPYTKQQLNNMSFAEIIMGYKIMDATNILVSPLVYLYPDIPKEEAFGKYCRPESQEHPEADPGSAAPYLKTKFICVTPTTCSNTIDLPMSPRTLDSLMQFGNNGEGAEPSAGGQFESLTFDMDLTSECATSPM

SET-2 [5] = experiment: Antitumor activity against human SET2 cells xenografted in NOD/SCID mouse assessed as tumor growth inhibition at 15 mg/kg, po qd administered for 16 days and measured every 2 days relative to control; format: functional; conditions: SET-2, po, 384 h, time 16 day, read-out: TGI
SET-2 [6] = experiment: Antitumor activity against human SET2 cells xenografted in NOD/SCID mouse assessed as tumor growth inhibition at 30 mg/kg, po qd administered for 16 days and measured every 2 days relative to control; format: functional; conditions: SET-2, po, 384 h, time 16 day, read-out: TGI
[7] = Cmax in male Sprague-Dawley rat at 5 mg/kg, po administered via gavage measured upto 24 hrs by LC/MS/MS analysis; format: ADME, organism-based; set-up: route oral, dose 5 mg/kg, time <=24; conditions: in vivo
[8] = tested on: Tyrosine-protein kinase JAK2 (Homo sapiens), O60674 [V617F]; experiment: Inhibition of JAK2 V617F mutant in human SET-2 cells assessed as reduction in JAk2 phosphorylation after 2 hrs by Western blot analysis; format: cell-based; conditions: SET2, dose 1-1000 nM
Chain of Tyrosine-protein kinase JAK2 (Homo sapiens), O60674 [V617F] (O60674 whole entry V617F): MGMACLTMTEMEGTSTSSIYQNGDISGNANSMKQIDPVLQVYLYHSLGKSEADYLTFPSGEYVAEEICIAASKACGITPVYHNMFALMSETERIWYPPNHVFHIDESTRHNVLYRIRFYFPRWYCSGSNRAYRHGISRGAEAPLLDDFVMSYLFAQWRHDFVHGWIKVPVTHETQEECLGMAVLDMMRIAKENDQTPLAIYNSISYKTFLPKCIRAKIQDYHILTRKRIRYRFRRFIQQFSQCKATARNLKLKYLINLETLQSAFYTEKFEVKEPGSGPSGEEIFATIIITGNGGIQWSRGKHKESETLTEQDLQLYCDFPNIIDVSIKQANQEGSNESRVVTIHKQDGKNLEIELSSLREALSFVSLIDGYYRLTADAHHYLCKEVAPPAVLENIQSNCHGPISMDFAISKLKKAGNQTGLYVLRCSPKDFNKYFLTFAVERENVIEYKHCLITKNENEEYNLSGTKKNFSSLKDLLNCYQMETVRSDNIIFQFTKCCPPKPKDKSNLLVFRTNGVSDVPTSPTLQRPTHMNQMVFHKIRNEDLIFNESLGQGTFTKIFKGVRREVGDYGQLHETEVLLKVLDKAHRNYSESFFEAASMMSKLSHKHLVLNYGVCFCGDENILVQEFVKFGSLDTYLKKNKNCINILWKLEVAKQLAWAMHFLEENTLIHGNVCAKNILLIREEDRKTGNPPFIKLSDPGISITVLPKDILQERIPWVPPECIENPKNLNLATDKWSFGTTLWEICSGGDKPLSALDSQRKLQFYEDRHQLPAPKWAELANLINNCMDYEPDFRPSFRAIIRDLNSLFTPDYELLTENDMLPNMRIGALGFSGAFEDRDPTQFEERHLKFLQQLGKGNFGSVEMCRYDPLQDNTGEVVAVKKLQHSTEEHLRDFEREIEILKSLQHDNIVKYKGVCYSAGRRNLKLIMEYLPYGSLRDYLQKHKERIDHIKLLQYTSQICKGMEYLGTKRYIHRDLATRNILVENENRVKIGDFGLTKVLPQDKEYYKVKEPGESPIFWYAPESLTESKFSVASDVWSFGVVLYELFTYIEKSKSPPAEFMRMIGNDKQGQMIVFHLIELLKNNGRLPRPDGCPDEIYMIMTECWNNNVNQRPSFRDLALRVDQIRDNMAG

[9] = Apparent clearance in Sprague-Dawley rat at 5 mg/kg, iv administered […] measured upto 24 hrs by LC/MS/MS analysis; format: ADME, organism-based; conditions: in vivo, read-out: CL(app) (converted)
BaF3 = experiment: Antitumor activity against mouse BAF3 cells harboring JAK2 V617F mutant implanted in Balb/c mouse assessed as decrease in spleen weight at 30 mg/kg, po qd administered starting from day 4 to 20 and measured on day 25 relative to control; format: functional; set-up: scale not given: the % may be the effect or the level left; conditions: time 21 day
SET-2 [10] = experiment: Induction of apoptosis in human SET-2 cells assessed as late apoptotic cells at 0.8 uM incubated for 24 hrs by Annexin V/PI staining based flow cytometric analysis (reference value: 1.52%); format: functional
[11] = target: T1, Signal transducer and activator of transcription 1 (Mus musculus) (UniProt P42225); experiment: Inhibition of STAT1 phosphorylation in mouse BAF3 cells at 1000 nM after 2 hrs by Western blot analysis; format: cell-based
T1 sequence (whole entry): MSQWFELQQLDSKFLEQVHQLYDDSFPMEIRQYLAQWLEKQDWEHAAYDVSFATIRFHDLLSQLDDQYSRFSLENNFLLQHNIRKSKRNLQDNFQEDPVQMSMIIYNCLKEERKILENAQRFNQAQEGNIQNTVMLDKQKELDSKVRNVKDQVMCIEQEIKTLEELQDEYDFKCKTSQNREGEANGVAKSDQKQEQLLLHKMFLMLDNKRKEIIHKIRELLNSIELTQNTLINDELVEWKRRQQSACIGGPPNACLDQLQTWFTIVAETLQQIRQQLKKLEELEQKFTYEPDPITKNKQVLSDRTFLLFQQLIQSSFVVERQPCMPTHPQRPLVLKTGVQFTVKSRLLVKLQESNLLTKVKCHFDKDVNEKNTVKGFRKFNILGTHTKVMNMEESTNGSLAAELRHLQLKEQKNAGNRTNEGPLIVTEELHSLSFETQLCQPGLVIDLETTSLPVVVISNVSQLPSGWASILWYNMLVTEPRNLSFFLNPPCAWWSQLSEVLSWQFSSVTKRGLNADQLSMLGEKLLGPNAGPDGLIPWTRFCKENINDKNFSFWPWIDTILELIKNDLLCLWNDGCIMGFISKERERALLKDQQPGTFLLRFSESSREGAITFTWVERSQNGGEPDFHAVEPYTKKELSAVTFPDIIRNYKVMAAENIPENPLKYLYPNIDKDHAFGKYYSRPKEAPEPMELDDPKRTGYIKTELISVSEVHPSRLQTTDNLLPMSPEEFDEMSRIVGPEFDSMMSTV

[12] = target: Receptor-type tyrosine-protein kinase FLT3 (Homo sapiens) (UniProt P36888); experiment: Inhibition of FLT3 in human SET2 cells assessed as decrease in AKT phosphorylation at 1 to 1000 nM after 2 hrs by Western blot analysis; format: cell-based; conditions: dose 1-1000 nM
[13] = Tmax in male Sprague-Dawley rat at 5 mg/kg, po administered via gavage measured upto 24 hrs by LC/MS/MS analysis; format: ADME, organism-based; conditions: in vivo
[14] = Cmax in male Sprague-Dawley rat at 5 mg/kg, iv administered […] measured upto 24 hrs by LC/MS/MS analysis; format: ADME, organism-based; set-up: route intravenous, dose 5 mg/kg, time <=24; conditions: in vivo
[15] = Selectivity index, ratio of IC50 for inhibition of human JAK1 (866 to end residues) to IC50 for inhibition of recombinant human JAK2 (808 to end residues)
SET-2 [16] = experiment: Induction of apoptosis in human SET-2 cells assessed as necrotic cells at 1.6 uM incubated for 24 hrs by Annexin V/PI staining based flow cytometric analysis (reference value: 0.78%); format: functional
[17] = AUC (0 to t) in Sprague-Dawley rat at 5 mg/kg, iv administered […] measured upto 24 hrs by LC/MS/MS analysis; format: ADME, organism-based; set-up: route intravenous, dose 5 mg/kg, time <=24; conditions: in vivo
SET-2 [18] = experiment: Induction of apoptosis in human SET-2 cells assessed as necrotic cells at 0.05 uM incubated for 24 hrs by Annexin V/PI staining based flow cytometric analysis (reference value: 0.78%); format: functional
SET-2 [19] = experiment: Induction of apoptosis in human SET-2 cells assessed as necrotic cells at 0.2 uM incubated for 24 hrs by Annexin V/PI staining based flow cytometric analysis (reference value: 0.78%); format: functional
[20] = Apparent clearance in Sprague-Dawley rat at 5 mg/kg, po administered via gavage measured upto 24 hrs by LC/MS/MS analysis; format: ADME, organism-based; conditions: in vivo, read-out: CL(app) (converted)
[21] = target: Tyrosine-protein kinase JAK2 (Homo sapiens, UniProt O60674); experiment: Inhibition of recombinant human JAK2 (808 to end residues) KTFCGTPEYLAPEVRREPRILSEEEQEMFRDFDYIADWC as substrate measured after 40 mins in presence of [gamm33P]ATP by scintillation counting method
Chain of Tyrosine-protein kinase JAK2 (O60674 whole entry): as the sequence (O60674 whole entry V617F) above, with F617V counted along it

[22] = AUC (0 to t) in Sprague-Dawley rat at 5 mg/kg, po administered via gavage measured upto 24 hrs by LC/MS/MS analysis; format: ADME, organism-based; set-up: route oral, dose 5 mg/kg, time <=24; conditions: in vivo
SET-2 [23] = experiment: Induction of apoptosis in human SET-2 cells assessed as late apoptotic cells at 0.2 uM incubated for 24 hrs by Annexin V/PI staining based flow cytometric analysis (reference value: 1.52%); format: functional

`Cc1cnc(Nc2ccc3c(c2)CCN(C(=O)/C=C/CN(C)C)C3)nc1-c1cnn(C(C)C)c1` gave an IC50 [1] of 62 nM, an Activity (SET-2 [2]) of 9.12% and an IC50 (L02) of 7220 nM. For the same compound, the Activity (SET-2 [3]) was 45.54%, the inhibition [4] was “inactive” and the inhibition in vivo at 15 mg/kg (SET-2 [5]) was 51.4%. For the same compound, the inhibition in vivo at 30 mg/kg (SET-2 [6]) was 67.8%, the Cmax [7] was 51.1 ng/mL and the inhibition [8] was “Dose-dependent effect”. For the same compound, the clearance [9] was 83.5 mL/min/kg, the Activity (BaF3) was 44% and the Activity (SET-2 [10]) was 40.19%. The inhibition [11] was “inactive”, the inhibition [12] was “inactive” and the Tmax [13] was 54 min. It also gave a Cmax [14] of 479 ng/mL, a Ratio IC50 [15] of 14 and an Activity (SET-2 [16]) of 4.04%. The AUC(0-t) at 24 h [17] was 988 ng·h/mL, the Activity (SET-2 [18]) was 0.35% and the Activity (SET-2 [19]) was 0.63%. The CL/F [20] was 480 mL/min/kg, the IC50 [21] was 3 nM and the AUC(0-t) at 24 h [22] was 254 ng·h/mL. The Activity (SET-2 [23]) was 5.66%.
